test: NF-kB promoter reporter activators, neuronal cells, dose response, cell-based, SH-SY5Y, luciferase (AID 1241); details: fold induction

Row | EC50 [nM] | Structure (SMILES)
1 | 12100 | COc1cc(/C=N/O)ccc1OCc1ccccc1Cl
2 | 1660 | COc1ccc(-c2nc3ccc([N+](=O)[O-])cc3[nH]2)cc1
3 | 2730 | CC(C)(C)C(=O)Nc1nc(-c2ccccc2)ns1
4 | 11000 | CN1CCN(Cc2cc(COCc3ccccc3)c3cccnc3c2O)CC1
5 | 899 | COc1ccc2nc(NC(=O)Nc3ccccc3)sc2c1
6 | 1720 | O=[N+]([O-])c1ccccc1OCc1nc(-c2cccs2)no1
7 | 1690 | COc1cc(/C=N/O)ccc1OCc1ccc([N+](=O)[O-])cc1
8 | 3610 | CN1CCN(Cn2cc(/C=C/C(=O)c3ccccc3)c3ccccc32)CC1
9 | 2950 | Oc1ccc(/C=N/Nc2cccc3cccnc23)c(O)c1
10 | 26000 | Nc1nn(-c2cccc(F)n2)cc1-c1ccccc1
11 | 9490 | Cc1ccc(OCC(=O)Nc2ccccc2[N+](=O)[O-])c(Br)c1
12 | 22300 | CC(=O)N(/N=C1\Sc2ccccc2C1=O)c1cccc(C)c1
13 | 1660 | Cc1ccc(C(=O)Nc2nnc(SCC(=O)N3CCCc4ccccc43)s2)cc1
14 | 3080 | Cc1ccsc1C(=O)Nc1ccc2c(c1)OCCO2
15 | 1240 | Oc1ccccc1-c1cc(-c2ccccc2Cl)[nH]n1
16 | 356 | O=C(/C=C/c1cccs1)N1CCc2ccccc21
17 | 3050 | COc1cc(SC)ccc1C(=O)Nc1ccc(C)cc1
18 | 96 | O=C(/C=C\Nc1ccccc1Br)c1ccc2c(c1)OCO2
19 | 23500 | Cc1ccc(S(=O)(=O)/N=C(/NC(=S)Nc2ccccc2)c2ccccc2)cc1
20 | 5700 | CC(C)CC(=O)Nc1ccc2nn(-c3ccccc3)nc2c1
21 | 5180 | CCOC(=O)c1cnc2c(-c3ccccc3)cnn2c1N
22 | 8390 | CCC(=O)NC(c1ccccc1OC)c1ccc2cccnc2c1O (stereo unspecified)
23 | 4350 | Cc1cc(NC(=O)Nc2ccccc2F)ccc1Br

Row | EC50 [nM] | Structure (SMILES)
24 | 5560 | Oc1c(-c2cc(-c3ccco3)[nH]n2)ccc2ccccc12
25 | 992 | COc1ccc(N=Cc2sc(O)c3ccccc23)cc1
26 | 7970 | O=C(c1ccccc1)c1cnc(Nc2ccccc2Cl)s1
27 | 2240 | COc1ccc2nc(Nc3ccccc3OC)sc2c1
28 | 1130 | O=C(Nc1ccc2c(c1)OCO2)c1noc2c1CCCCC2
29 | 2360 | Cc1noc(/C=C/Nc2ccc(F)cc2F)c1[N+](=O)[O-]
30 | 8920 | CCOC(=O)c1cnc(SCc2ccccc2)nc1N
31 | 2750 | Cc1nn(C)cc1/C=C/C(=O)c1ccccc1
32 | 4450 | CCC(=O)NC(=Nc1nc2ccccc2s1)NC(=O)CC
33 | 871 | CCOC(=O)c1c(N)sc(C(=O)Nc2ccc3c(c2)OCO3)c1C
34 | 12000 | COc1ccc(C(=O)Nc2cc(OC)nc(OC)n2)cc1
35 | 6990 | COc1ccc(-c2cc(=O)c3cc(O)ccc3o2)cc1
36 | 1820 | C=CCNc1ncnc2c1cnn2-c1ccc(Cl)cc1
37 | 2410 | O=C1C(C=Nc2ccc(F)cc2)=C(O)c2ccccc21
38 | 1720 | N#C/C(=N\Nc1ccc(Cl)cc1)C(=N)N1CCCCC1
39 | 125 | Fc1ccc(-c2nc3n(n2)Cc2ccccc2-3)cc1
40 | 763 | Cc1ccc(NC(=O)N2CCc3ccccc32)cc1
41 | 23400 | C/C(=N\NC(=O)c1ccc(Br)cc1)c1ccccc1
42 | 1080 | COc1ccc2c(=O)c(-c3nc(C)cs3)coc2c1
43 | 17200 | O=C(Nc1ccccn1)c1ccc2ccccc2n1
44 | 217 | O=C(Nc1ccc2c(c1)CCC2)c1ccc(F)cc1
45 | 4340 | Fc1cccc(F)c1CSc1nc2ccccc2[nH]1
46 | 3360 | Cc1ccc(NCc2nc3ccccc3n2C)cc1

Row | EC50 [nM] | Structure (SMILES)
47 | 2320 | c1ccc(-c2ncc(-c3ccn[nH]3)s2)cc1
48 | 1060 | Clc1ccc(-c2nnc(SCc3ccon3)o2)c(Cl)c1
49 | 2620 | CCCc1cc(C(=O)Nc2nccs2)cs1
50 | 2820 | CCOC(=O)c1ccc(Nc2ncccc2[N+](=O)[O-])cc1
51 | 2020 | Nc1ccc(Nc2nc(-c3cc4ccccc4oc3=O)cs2)cc1
52 | 2600 | Cc1cccc(-c2cc3c(nn2)-c2ccccc2C3=O)c1
53 | 1400 | C/C(=N\NC(=O)c1ccc(Cl)cc1)c1cccs1
54 | 2290 | Cc1ccc(-c2noc(-c3cccs3)n2)cc1
55 | 7790 | Clc1ccc2nc(N3CCCCC3)[nH]c2c1
56 | 8780 | CN(C)S(=O)(=O)Oc1cccc(C(=O)Nc2ccc(Cl)cc2)c1
57 | 1140 | CCOc1ccc2nc(-c3ccccc3)[nH]c2c1
58 | 1640 | c1ccc(Nc2nc(-c3ccncc3)cs2)nc1
59 | 1050 | COc1cccc(/C=C/C(=O)Nc2ccc3c(c2)OCCO3)c1OC
60 | 5300 | Cc1ccc(NC(=O)N2CCC(c3ccccc3)C2)cc1C (stereo unspecified)
61 | 24100 | O=C(NCCCn1ccnc1)c1cc(-c2cccs2)on1
62 | 1880 | Cc1ccc(C)c(NC(=O)c2ccc3ccccc3n2)c1
63 | 5190 | S=C(c1ccc(-c2ccc(Cl)c(Cl)c2)o1)N1CCOCC1
64 | 1190 | Oc1ccc(-c2cn3cc(C(F)(F)F)ccc3n2)cc1
65 | 6410 | COc1ccc(C(=O)N=c2sc3ccccc3n2C)cc1
66 | 966 | c1ccc2oc(-c3csc(N4CCOCC4)n3)cc2c1
67 | 6530 | COC(=O)CSc1nc2cc(C)ccc2cc1C#N
68 | 1250 | NC(=O)c1ccccc1N/C=C/C(=O)c1ccc(Cl)cc1Cl
69 | 8700 | CC(C)c1ccc(/C=C/c2ccc(=O)n(C)n2)cc1

Row | EC50 [nM] | Structure (SMILES)
70 | 1870 | CC(C)Oc1ccc(C(=O)NC2=NCCS2)cc1
71 | 4980 | O=C1C(c2cc(=O)c3ccccc3[nH]2)=C(O)c2ccccc21
72 | 16300 | CCCCc1ccc(-c2ccc(Br)cc2)nc1
73 | 9450 | CCOC(=O)N/C(N)=N/c1nc2ccccc2s1
74 | 1970 | N#C/C(=C/c1ccco1)c1nc2ccccc2s1
75 | 361 | Cc1ccc(NC(=O)N2CCc3ccccc32)cc1C
76 | 26500 | O=C(O)c1cc(N/N=C/c2ccc3c(c2)OCCO3)ccc1Cl
77 | 1640 | Cc1occc1C(=O)N/N=C/C(Br)=C/c1ccccc1
78 | 403 | NC(=O)c1ccc(-c2ncc(-c3ccccc3)o2)cc1
79 | 2850 | CCc1ccc(C2=NN(S(C)(=O)=O)C(c3cccs3)C2)cc1 (stereo unspecified)
80 | 882 | COc1cc(/C=N/O)ccc1OCc1ccc(Cl)cc1
81 | 3690 | CCOc1ccc2nc(N3CCCCCC3)sc2c1
82 | 1010 | Nc1nn(-c2ccccc2)c(N)c1N=Nc1ccccc1F
83 | 498 | COc1cccc(-c2cc(C(=O)Nc3cccc(O)c3)no2)c1
84 | 2410 | Clc1c(CSc2nc3ccccc3o2)nc2sccn12
85 | 2540 | c1ccc2oc(-c3csc(NCC4CCCO4)n3)cc2c1 (stereo unspecified)
86 | 8250 | Cc1ccc(NC(=O)c2ccn(C)n2)c(Br)c1
87 | 4370 | Cc1nn(-c2ccccc2Cl)c(Cl)c1/C=N/Nc1cccc(C(=O)O)c1
88 | 964 | COc1ccc(OCc2cccc(C(=O)O)c2)cc1
89 | 637 | Cc1ccc(/C=C(\C#N)c2nc3ccccc3[nH]2)s1
90 | 1760 | O=C(Nc1ccccn1)c1sc2cccc(F)c2c1Cl
91 | 6280 | O=C(Nc1ccc(OC(F)F)c(Cl)c1)c1ccccn1
92 | 4000 | CCOc1cc(/C=N/Nc2cccc(C(=O)O)c2)ccc1OC(=O)c1ccccc1

Row | EC50 [nM] | Structure (SMILES)
93 | 608 | Cc1ccnc(NC(=O)Nc2cccc(F)c2)c1
94 | 2100 | Clc1ccccc1OCc1nc(-c2ccccn2)no1
95 | 104 | CC(=O)CSc1nc2cc3c(cc2cc1C#N)OCCO3
96 | 24000 | Cc1cnc(NC(=O)Nc2ccc(Cl)cc2)s1
97 | 4570 | Cc1nnc(SCc2cnc(-c3ccc(C(C)C)cc3)s2)n1C
98 | 455 | NC(=O)c1ccsc1NC(=O)c1ccc2c(c1)CCCC2
99 | 1420 | CCn1cnc2cc(NCc3nc4ccccc4n3C)ccc21
100 | 935 | COc1ccc(-c2csc(N3C(=O)CNC3=S)n2)cc1
101 | 5760 | O=C(NC1=NCCS1)c1sc2ccccc2c1Cl
102 | 1490 | COc1cccc(-c2nc(-c3ccccc3)no2)c1
103 | 1060 | CCN(CC)c1ccc(C(=O)Nc2cccc(F)c2)cc1
104 | 1420 | COc1cc(/C=N/Nc2nc3ccccc3s2)ccc1OC(=O)c1ccccc1F
105 | 3700 | COc1ccc(-c2csc(NCc3ccco3)n2)cc1
106 | 595 | O=C(/C=C/Nc1ccccc1F)c1ccc(Br)cc1
107 | 2330 | Cc1cccc(-n2ncc3c(NC4CCCCC4)ncnc32)c1
108 | 158 | Cc1ccc(C(=O)Nc2ccc3c(c2)CCC3)cc1
109 | 778 | CCOC(=O)c1sc(=NC(=O)c2cccs2)n(C)c1C
110 | 3310 | N/C(=N\N=C\c1cccc(O)c1)c1nonc1N
111 | 2120 | Cc1ccc(/C=N/Nc2cccc(C(=O)O)c2)s1
112 | 319 | Fc1ccccc1/C=C/c1ccc2ccccc2n1
113 | 20400 | COc1ccc(Nc2nc3ccccc3s2)cc1
114 | 667 | c1ccc(Nc2nc(-c3cccs3)cs2)nc1
115 | 347 | O=C(/C=C\Nc1cccc(F)c1)c1cccs1

Row | EC50 [nM] | Structure (SMILES)
116 | 1010 | C/C(=N\Nc1cccc2cccnc12)c1ccccc1O
117 | 3350 | COc1ccc(/C=N/Nc2ncccc2[N+](=O)[O-])c(OC)c1
118 | 1650 | Nc1ccc(-c2nc3ccc([N+](=O)[O-])cc3[nH]2)cc1
119 | 3300 | CCOc1ccc2nc(C(=O)N3CCCC(C)C3)sc2c1 (stereo unspecified)
120 | 1860 | Clc1ccccc1Nc1nc(-c2cccnc2)cs1
121 | 8130 | Cc1cccnc1Nc1nc(-c2ccc(O)cc2)cs1
122 | 1850 | Clc1cc(Cl)c(OCc2nc(-c3ccccn3)no2)cc1Cl
123 | 609 | O=C(Nc1ccc2c(c1)OCCO2)c1ccc(Br)s1
124 | 1670 | Clc1cccc(-c2nnc(-c3ccccc3)o2)c1
125 | 10200 | O=c1c2ccccc2cnn1-c1ccc(Br)cc1
126 | 2170 | Cc1ccc(-c2nc3cc(N)ccc3o2)cc1
127 | 3430 | CSc1ccc(/C=N/Nc2cccc(C(=O)O)c2)cc1
128 | 1850 | O=C(Nc1ccc2nsnc2c1)c1ccc2c(c1)OCO2
129 | 659 | O=C(N/N=C/C(Br)=C/c1ccccc1)c1n[nH]c2c1CCC2
130 | 2700 | O=C(NCCSc1ccccn1)c1ccc(Cl)cc1
131 | 6940 | N#C/C(=N\Nc1ccccc1[N+](=O)[O-])C(=N)N1CCCCC1
132 | 2220 | Cc1cc(N/C=C/C(=O)c2cccs2)ccc1F
133 | 13100 | O=C(Oc1c(CN2CCOCC2)cc(Cl)c2cccnc12)c1ccc(F)cc1
134 | 5510 | COc1cccc(C(=O)/C=C/Nc2cc(C)ccc2O)c1
135 | 8070 | O=C(/C=C/c1ccccc1Cl)c1ccccc(=O)c1O
136 | 2040 | Cc1ccc(NC(=O)c2cc3ccccc3o2)cc1S(=O)(=O)N(C)C
